Experimental findings from patent publication EP4737448A1, “SARM1 ENZYME ACTIVITY INHIBITOR AND USE THEREOF” (Artivila (ShenZhen) Innovation Center, Ltd., priority 2023, dated 2025) are described below.

Structures are written as SMILES.

Test [1] relates to axons of dorsal root ganglia explants. The test can be described thus: Wallerian degeneration assay of axon in mouse DRG explant culture. The class given is cell-based, C57BL/6 mice. Particulars: 10 µM compound, 2 h pretreatment, 24 h post axonal transection. The protocol: Dorsal root ganglia were dissected from two-month-old male C57BL/6 mice and placed into a 35-mm culture dish containing ice-cold HBSS buffer. Extra tissue surrounding each dorsal ganglion was removed using a scalpel, and the ganglia were cut into 2-3 explant pieces. These explants were seeded into wells of a 96-well plate pre-coated with 100 ng/mL Matrigel (Corning), added with 100 µL of DRG medium (Neurobasal medium (Gibco) containing 2% B-27 (Gibco), 1% GlutaMAX (Gibco) and 10 ng/mL NGF (MCE)), and cultured in a 37°C incubator for one week. The medium was half- replaced on the fourth day and the experiments were counted on the eighth day.
Refer to methods reported in literatures in the related art (Gerdts J, Sasaki Y, Vohra B, Marasa J, Milbrandt J. Image-based screening identifies novel roles for IkappaB kinase and glycogen synthase kinase 3 in axonal degeneration. J Biol Chem. 2011 Aug 12;286(32):28011-8) for the definition and measurement principle of the degeneration index of axon. In the present disclosure, the measurement method is detaild below.
0.1 µL of 10 mM compound to be tested was added to 100 µL of DRG medium to prepare a new medium containing 10 µM compound to be tested. The medium in the 96-well plate was removed and replaced with the new medium containing the compound to be tested. Explant pieces of dorsal ganglia were incubated with compounds in a 37°C incubator for 2 h of pre-protection. Following this 2-hour pretreatment, axons were transcted near the explants tissue piece using a glass microelectrode. At 0 h and 24 h post axonal transection, brightfield images of axons in the same region were captured using a microscope (Olympus) with 20× objective. Axonal integrity was assessed using an in-house developed script. The results were categorized based on the degree of protection into: (A) >50% and (B) 20-50%.

The target in a further test is T1, SARM1 (Homo sapiens, UniProt Q6SZW1).
T1 construct: the inventor produces full-length SARM1 for NADase activity assays and for screening; His (C); made in house; host or cells: HEK293 cells (transient transfection; digitonin lysate supernatant, not purified further)
T1 sequence (Q6SZW1 28-724): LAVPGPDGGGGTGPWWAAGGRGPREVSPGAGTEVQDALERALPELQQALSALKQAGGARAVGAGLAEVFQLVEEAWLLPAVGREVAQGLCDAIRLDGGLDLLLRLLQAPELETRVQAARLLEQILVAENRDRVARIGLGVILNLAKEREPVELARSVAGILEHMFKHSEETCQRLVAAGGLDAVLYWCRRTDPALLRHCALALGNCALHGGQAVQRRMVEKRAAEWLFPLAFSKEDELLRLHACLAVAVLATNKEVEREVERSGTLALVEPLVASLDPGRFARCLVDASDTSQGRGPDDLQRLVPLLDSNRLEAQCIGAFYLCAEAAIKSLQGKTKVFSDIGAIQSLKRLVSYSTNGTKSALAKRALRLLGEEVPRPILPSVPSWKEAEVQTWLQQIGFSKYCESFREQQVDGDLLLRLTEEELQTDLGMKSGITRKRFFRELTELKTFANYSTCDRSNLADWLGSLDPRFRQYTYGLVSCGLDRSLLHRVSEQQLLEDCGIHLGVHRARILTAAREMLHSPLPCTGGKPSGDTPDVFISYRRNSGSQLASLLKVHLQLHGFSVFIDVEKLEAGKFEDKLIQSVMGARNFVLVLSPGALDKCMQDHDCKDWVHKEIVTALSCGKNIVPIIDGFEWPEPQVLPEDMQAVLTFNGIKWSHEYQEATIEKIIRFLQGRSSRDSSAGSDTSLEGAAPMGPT
In words: In vitro biochemical assay for inhibiting SARM1 enzymatic activity (PC6 fluorescence, NAD substrate, NMN activator). Particulars: 0.05 µg/mL SARM1, 50 µM NAD, 50 µM PC6, 50 µM NMN, 10 min pre-incubation, 30 min at room temperature. The protocol: Compounds to be tested were stocked at 200 µM or 10 mM (in DMSO), and further diluted to the desired compound concentration for the in vitro SARM1 enzyme assay and inhibitor screening.
The gene sequence encoding SARM1 protein was amplified by PCR and the PCR amplification product was constructed into the pcDNA3.1-HIS-C plasmid. This construction was completed by YouBio Biological Technology (Hunan, China).
HEK293 cells were cultured in DMEM in a 10 cm dish. The next day, cells were transfected with 15 µg of the pcDNA3.1-SARM1-HIS-C expression plasmid.
Cells were harvested 48 hours after the transfection. The SARM1 protein expressed in cells was obtained through cell lysis by digitonin, which was used for in vitro activity assay. The specific process was as follows:
Cells were digested and detached from the dish using trypsin-EDTA, centrifuged at 1000 rpm for 5 minutes, washed once with PBS, then resuspended in PBS containing 100 µM digitonin at 0.6 mL PBS for the cells in 10 cm dish and lysed for 5 min. The cells were added with trypan blue and observed under a microscope. More than 90% of the cells were confirmed to be lysed. The cells were centrifuged at 5000 rpm for 10 min, and the supernatant containing SARM1 protein was collected.
The compound was added into a solution of 50 mM Tris-HCl (pH 7.5) containing 0.05 µg/mL SARM1 to achieve a concentration of 200 µM, and then serially diluted 6 times, where each dilution was carried out by taking half of the previous solution and adding an equal volume of 50 mM Tris-HCl (pH 7.5) containing 0.05 µg/mL SARM1, yielding a set of final concentrations of the compound of either 200, 100, 50, 25, 12.5, 6.25 and 3.125 µM, or 200, 50, 12.5, 3.125, 0.78, 0.195 and 0.049 µM. No inhibitor was added in the control group. All mixtures were incubated at room temperature for 10 min.
Subsequently, 50 µM NAD, 50 µM PC6 as substrate and 50 µM NMN as activator were added to the SARM1 protein incubated with the inhibitor and reacted for 30 min at room temperature. Wherein, the aforementioned concentrations of each component represent their respective final concentrations in the reaction system
During the reaction, the fluorescence spectrum dynamics of PC6 was detected by a microplate reader, with excitation and emission wavelengths set at 390 nm and 520 nm, respectively. The activity of the protein was expressed as the reaction rate and half maximal inhibitory concentration was calculated. The higher the reaction rate, the stronger the protein activity, and the lower the inhibitory efficiency of the compound.
Dose-response curves for inhibition of SARM1 enzymatic activity for NAD by the compounds were plotted using the above method.

As for `O=C1C(Cc2ccc(Cl)nc2)CCN1c1ccc(-c2ccncc2)cc1` (stereo not shown) [Compound 25, 3-((6-chloropyridin-3-yl)methyl)-1-(4-(pyridin-4-yl)phenyl)pyrrolidin-2-one], in test [1], the “Degree of protection against axonal Wallerian Degeneration” value (“Degree of protection” below) is “A ((A) >50%)”. The IC50 (as a rule, the point on the concentration scale where inhibition reaches its midpoint) against SARM1 was 1 to 10 µM.

`O=C1C(Cc2ccc(Cl)cc2)CCCN1c1ccc(-c2ccncc2)nn1` (stereo not shown) [Compound 53, 3-(4-chlorobenzyl)-1-(6-(pyridin-4-yl)pyridazin-3-yl)piperidin-2-one]: in test [1], the “Degree of protection” value is “B ((B) 20-50%)”. The compound also had an IC50 at SARM1 below 1 µM.

On to `O=C1C(Cc2ccc(Cl)c(F)c2)CCN1c1ccc(-c2ccncc2)nn1` (stereo not shown) [Compound 62], for which the “Degree of protection” value in test [1] is given as “B ((B) 20-50%)”. The 50% inhibitory concentration (IC50) against SARM1 was below 1 µM.

`N#Cc1cc(-c2ccncc2)ccc1N1CCC(Cc2ccc(Cl)cc2)C1=O` (stereo not shown) [Compound 21, 2-(3-(4-chlorobenzyl)-2-pyrrolidinone-1-yl)-5-(pyridin-4-yl)benzonitrile]: in test [1], the “Degree of protection” value is “B ((B) 20-50%)”. This compound gave an IC50 at SARM1 of 10 to 30 µM.

Regarding `O=C1C(Cc2ccc(Cl)s2)CCN1c1ccc(-c2ccncc2)nn1` (stereo not shown) [Compound 66], the “Degree of protection” value in test [1] was “A ((A) >50%)”. The same compound displayed an IC50 at SARM1 below 1 µM.

As to `O=C1N(c2ccc(-c3ccncc3)cc2)CCC1(O)Cc1ccc(F)c(F)c1` (stereo not shown) [Compound 84, 3-(3,4-difluorobenzyl)-3-hydroxy-1-(4-(pyridin-4-yl)phenyl)pyrrolidin-2-one], the “Degree of protection” value in test [1] is given as “B ((B) 20-50%)”. Moreover, the half-inhibitory concentration (IC50) against SARM1 fell in the range of 1 to 10 µM.

In the case of `O=C1C(Cc2ccc(Cl)cc2)CCN1c1ccc(-c2ccncc2)cn1` (stereo not shown) [Compound 6, 1-([3,4'-bipyridin]-6-yl)-3-(4-chlorobenzyl)pyrrolin-2-one], the “Degree of protection” value in test [1] is “A ((A) >50%)”. At SARM1, this compound displayed an IC50 of 1 to 10 µM.

In the case of `O=C1C(Cc2ccc(Cl)cc2)CON1c1ccc(-c2ccncc2)cc1` (stereo not shown) [Compound 3, 4-(4-chlorobenzyl)-2-(4-(pyridin-4-yl)phenyl)isoxazolidin-3-one], the “Degree of protection” value in test [1] is on record as “B ((B) 20-50%)”. The compound also yielded an IC50 against SARM1 below 1 µM.

As to `Cc1ccc(CC2CCN(c3ccc(-c4ccncc4)cc3)C2=O)cc1` (stereo not shown) [Compound 17, 3-(4-methylbenzyl)-1-(4-(pyridin-4-yl)phenyl)pyrrolidin-2-one], the “Degree of protection” value in test [1] was “A ((A) >50%)”. Further, the IC50 on SARM1 fell in the range of 1 to 10 µM.

Regarding `O=C1C(Cc2cc(F)cc(F)c2)CCN1c1ccc(-c2ccncc2)cc1` (stereo not shown) [Compound 33, 3-(3,5-difluorobenzyl)-1-(4-(pyridin-4-yl)phenyl)pyrrolidin-2-one], the “Degree of protection” value in test [1] was “A ((A) >50%)”. Moreover, the IC50 at SARM1 lay within 1 to 10 µM.

As for `O=C1C(Cc2ccccc2)CCN1c1ccc(-c2ccncc2)nn1` (stereo not shown) [Compound 65], the “Degree of protection” value in test [1] is “B ((B) 20-50%)”. Moreover, on SARM1, the IC50 was below 1 µM.

In the case of `O=C1C(Cc2ccc(F)cc2F)CCN1c1ccc(-c2ccncc2)nn1` (stereo not shown) [Compound 70], the “Degree of protection” value in test [1] is “B ((B) 20-50%)”. The IC50 against SARM1 is below 1 µM.

In the case of `O=C1C(Cc2ccc(F)cc2)CCN1c1ccc(-c2ccncc2)cc1` (stereo not shown) [Compound 15, 3-(4-fluorobenzyl)-1-(4-(pyridin-4-yl)phenyl)pyrrolidin-2-one], the “Degree of protection” value in test [1] was “B ((B) 20-50%)”. Moreover, the IC50 at SARM1 fell in the range of 1 to 10 µM.

As for `O=C1C(Cc2ccc(Cl)cc2)CCN1c1ccc(-c2ccncc2Cl)cc1` (stereo not shown) [Compound 34, 3-(4-chlorobenzyl)-1-(4-(3-chloropyridin-4-yl)phenyl)pyrrolidin-2-one], the “Degree of protection” value in test [1] is on record as “A ((A) >50%)”. This compound also returned an IC50 against SARM1 below 1 µM.

`O=C1C(Cc2ccc(C(F)(F)F)cc2)CCN1c1ccc(-c2ccncc2)nn1` (stereo not shown) [Compound 60]: in test [1], the “Degree of protection” value is recorded as “B ((B) 20-50%)”. Moreover, on SARM1, the concentration for half-maximal inhibition (IC50) was below 1 µM.

Take `O=C1C(Cc2ccc(Cl)cc2)CCN1c1ccc(-c2ccncc2Cl)nn1` (stereo not shown) [Compound 76, 3-(4-chlorobenzyl)-1-(6-(3-chloropyridin-4-yl)pyridazin-3-yl)pyrrolidin-2-one]: the “Degree of protection” value in test [1] is listed as “B ((B) 20-50%)”. This compound had a concentration for half-maximal inhibition (IC50) on SARM1 below 1 µM.

Regarding `O=C1N(Cc2ccc(Cl)cc2)CCN1c1ccc(-c2ccncc2)nn1` [Compound 59, 1-(4-chlorobenzyl)-3-(6-(pyridin-4-yl)pyridazin-3-yl)imidazolidin-2-one], the “Degree of protection” value in test [1] is reported as “B ((B) 20-50%)”. In addition, the IC50 at SARM1 is below 1 µM.

Turning to `CC(=O)c1ccc(CC2CCN(c3ccc(-c4ccncc4)cc3)C2=O)cc1` (stereo not shown) [Compound 91, 3-(4-acetylbenzyl)-1-(4-(pyridin-4-yl)phenyl)pyrrolidin-2-one], on SARM1, the IC50 fell in the range of 10 to 30 µM.

Regarding `Cc1cc(N2CCC(Cc3ccc(Cl)cc3)C2=O)ccc1-c1ccncc1` (stereo not shown) [Compound 10, 3-(4-chlorobenzyl)-1-(3-methyl-4-(pyridin-4-yl)phenyl)pyrrolidin-2-one], at SARM1, the IC50 lay within 1 to 10 µM.

The compound `O=C1C(Cc2ccc(Cl)cc2)CCON1c1ccc(-c2ccncc2)cc1` (stereo not shown) [Compound 40, 4-(4-chlorobenzyl)-2-(4-(pyridin-4-yl)phenyl)-1,2-oxaza-3-one] gave an IC50 on SARM1 of 1 to 10 µM.

Turning to `O=C1C(Cc2ccc(Cl)cn2)CCN1c1ccc(-c2ccncc2)cc1` (stereo not shown) [Compound 28], the IC50 against SARM1 lay in the range of 10 to 30 µM.

Compound `O=C1C(Cc2ccc(Cl)o2)CCN1c1ccc(-c2ccncc2)cc1` (stereo not shown) [Compound 73] came in with a half-inhibitory concentration (IC50) at SARM1 of 1 to 10 µM.

Take `N#Cc1ccc(CC2CCN(c3ccc(-c4ccncc4)nn3)C2=O)cc1` (stereo not shown) [Compound 61]: on SARM1, the IC50 was below 1 µM.
